In test [1] the test system is bovine coronary artery. Nature of the test: Vasorelaxant activity in bovine coronary artery rings. The settings on record: for Vascular Relax. % (10 μM): rings precontracted with U-46619, 100% relaxation = basal pre-U-46619 tension; for EC50: Bos taurus, bovine coronary artery rings precontracted with U-46619, read-out: Vascular Relax. EC50. How it is done:
Vasorelaxant activity was measured in bovine coronary artery. Bovine hearts were obtained and the left anterior descending coronary artery was dissected and cleaned of connective tissue. Vessels of 1 mm diameter were cut into rings of 3 mm width as previously described (3, 27, 39). […] The vessels were suspended from a pair of stainless steel hooks in a 6-ml water jacketed organ chamber. […] One hook was anchored to a steel rod and the other hook to a force transducer (model FT-03C; Grass Instruments, West Warwick, R.I.). Tension of the vessel was measured by an ETH-400 bridge amplifier, and the data were acquired with a MacLab 8e analog-to-digital converter and MacLab software version 3.5.6 (AD Instruments, Milford, Mass.) and stored on a Macintosh computer for subsequent data analysis.
Basal tension was set at the length-tension maximum of 3.5 g and equilibrated for 1.5 h. KCl (40 mM) was added to the chamber until reproducible maximal contractions were maintained. […] Cumulative additions of compounds were added to the chamber. Between concentration-response curves, the chambers were rinsed with fresh Krebs buffer, 40 mM KCl was administered to determine the maximum contraction, and the vessels were rinsed. Consecutive concentration-response curves were performed with 14,15-EET followed by a concentration-response curve to a compound. The experiment was always repeated with the order of the agonists reversed. […] The relaxation was plotted versus compound concentration and the EC50 determined utilizing statistical software.

Test [2] relates to Spontaneously Hypertensive Rats (SHR). Description: Telemetry blood pressure and heart rate in spontaneously hypertensive rats. Format: in vivo, rat. An excerpt:
To accurately detect changes in blood pressure and heart rate, telemetry transmitters (Data Sciences Inc., St. Paul, Minn.) were implanted in rats one week prior to the experimental period according to manufacturer's specifications while under pentobarbital anesthesia. In brief, an incision was made to expose the femoral artery that was occluded to allow insertion of the transmitter catheter. The catheter was secured in place with tissue glue and the transmitter body was sutured in place and the incision line was closed. Rats were allowed to recover from surgery and were returned to individual housing. A baseline arterial pressure was recorded for prior to the experimental period. Mean arterial pressure was continuously recorded throughout the experimental period.
Telemetry transmitters were implanted into male SHR as described. After the surgical recovery period, baseline mean arterial pressure was recorded. In this series of experiments, EET analogs were administered by osmotic pump (2 mg/d, i.p.) and blood pressure was continuously monitored.

The target of test [3] is Human recombinant sEH (Homo sapiens (Human), UniProt P34913). Nature of the test: Soluble epoxide hydrolase inhibition (PHOME fluorescent substrate). Format: biochemical. The settings on record: human recombinant sEH, PHOME substrate, 0.1 to 1000 nM; read-out: sEHi IC50. How it is done:
Compounds were tested for their ability to inhibit recombinant soluble epoxide hydrolase (sEH) protein. The assay utilizes (3-Phhenyl-oxiranyl)-acetic acid cyano-(6-methoxy-naphthalen-2-yl)-methyl ester (PHOME), a sensitive substrate for sEH that can be used to monitor the activity of both human and murine enzymes. […] Human recombinant sEH was incubated with substrate and compounds ranging in concentration from 0.1 to 1000 nM.

Test [4] concerns cisplatin-induced nephrotoxicity in Wistar-Kyoto (WKY) rats. Description: Cisplatin-induced nephrotoxicity in rats. In kind it is in vivo, rat. An excerpt: Experiments were approved and carried out according to the guidelines of the Institutional Animal Care and Use Committee, Medical College of Wisconsin, Milwaukee, USA. Male Wistar-Kyoto (WKY) rats weighing 180-200 g (Charles River, Mass., USA). All animals were kept in a temperature-controlled environment with a 12-h light/dark cycle and were allowed free access to food and water at all times. An acclimatization period of 6 days was allowed for the rats before experimentation. The rats were assigned into four groups. […] Rats received drinking water ad libitum for seven days and on day 7 DMSO (Sigma Aldrich, St. Louis, Mo., USA) was administered (300-500 μl i.p.). […] These rats are pretreated with the EET analog […].) for seven days in drinking water and then on day 7 administered CP as a single injection (7 mg/kg i.p.) followed by another five days treatment with EET-A. […] One day before the rats were sacrificed, urine of each rat was collected over a 24-h period, and the volume was measured. Five days after CP or DMSO administration, rats were anesthetized for blood sample collection followed by euthanasia and tissue collection. Urine and plasma samples were kept frozen at -80° C. until analyzed. The kidneys were removed, washed with physiological saline and stored at -80° C. until used for RT-PCR analysis, thiobarbituric acid reactive substance (TBARS) measurement and caspase 3 activity assay. […] The levels of blood urea nitrogen (BUN) (BioAssay Systems, Hayward, Calif., USA) and serum creatinine (Cayman Chemical Company, Ann Arbor, Mich., USA) were measured spectrophotometrically using commercial kits. Urinary content of creatinine and protein were measured using commercial kits (Cayman Chemical Company, Ann Arbor, Mich., USA), and the activity of urinary N-acetyl-b-glucosaminidase (NAG) in the urine was measured by a kit from Diazyme (Diazyme Laboratories, Poway, Calif., USA). While urine content of kidney injury molecule-1 (KIM-1) was measured using ELISA (R&D Systems, Inc. Minneapolis, Minn., USA). Malondialdehyde (MDA) is a thiobarbituric acid reactive substance (TBARS) that is formed as an end-product of lipid peroxidation and serves as an important index of oxidative stress. […] Using a commercially available kit (Cayman Chemical Company, Ann Arbor, Mich., USA), MDA was measured spectrophotometrically after reaction with thiobarbituric acid. […] Louis, Mo., USA). Kidney homogenate was prepared with a lysis Buffer (50 mM HEPES, pH 7.4, with 5 mM CHAPS and 5 mM DTT). […] The caspase 3 activity is expressed as nmol of AMC/min/μL. Real-Time analysis was carried out to assess the expression of oxidative (gp91phox, NOX1, SOD1, SOD2, SOD3), inflammatory (TNF-α, IL-6, apoptotic (Bax, Bak, Bcl-2) and endoplasmic reticulum stress (GRP78, caspase 12) related genes in the kidney. Total RNA was isolated from kidney homogenate using TRIzol LS reagents (Invitrogen Life Technologies, Carlsbad, Calif., USA) according to the manufacturer's instructions. The isolated RNA was treated with RNase-free DNase (Invitrogen, Carlsbad, Calif., USA) to remove traces of genomic DNA contamination. The mRNA samples were quantified by spectrophotometry at 260 nm and 1 μg of total RNA was reverse-transcribed to cDNA using iScriptTM Select cDNA Synthesis Kit (Bio-Rad, Hercules, Calif., USA). The target gene expression was quantified by iScript One-Step RT-PCR Kit with SYBR green using MyiQTM Single Color Real-Time PCR Detection System (Bio-Rad Laboratories, Hercules, Calif., USA). Each amplified sample in all wells was analyzed for homogeneity using dissociation curve analysis using iQ5 Optical System Software, Version 2.1 (Bio-Rad Laboratories, Hercules, Calif., USA). […] In analyzing the relative expression of the target genes, the Ct values were normalized to a housekeeping gene (pgk1). Statistical analyses were carried out for at least 5-7 experimental samples in each experimental group. Primers used in this study were designed based on several earlier reports. […]

Here are results for 22 molecules from patent US9422318B2, “Epoxyeicosatrienoic acid analogs and methods of making and using the same” (THE MEDICAL COLLEGE OF WISCONSIN, INC., priority 2011, dated 2016).

Chain of Human recombinant sEH (P34913 whole entry): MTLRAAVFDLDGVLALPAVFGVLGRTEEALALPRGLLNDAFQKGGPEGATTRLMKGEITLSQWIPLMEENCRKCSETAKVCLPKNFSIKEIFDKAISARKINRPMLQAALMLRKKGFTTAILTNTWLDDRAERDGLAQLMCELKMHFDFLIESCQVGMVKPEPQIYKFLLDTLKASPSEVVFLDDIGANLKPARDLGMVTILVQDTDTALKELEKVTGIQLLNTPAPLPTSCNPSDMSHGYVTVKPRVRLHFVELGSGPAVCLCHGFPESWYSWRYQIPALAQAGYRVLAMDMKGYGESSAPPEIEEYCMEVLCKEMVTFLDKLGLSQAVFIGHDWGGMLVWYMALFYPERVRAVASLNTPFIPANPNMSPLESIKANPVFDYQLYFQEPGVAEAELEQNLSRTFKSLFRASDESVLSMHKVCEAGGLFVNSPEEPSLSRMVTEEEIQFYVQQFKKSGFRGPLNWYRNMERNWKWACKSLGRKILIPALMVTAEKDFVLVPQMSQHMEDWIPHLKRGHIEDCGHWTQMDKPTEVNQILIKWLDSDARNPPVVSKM

On to `CCCCCNC(=O)NCCCC/C=C\CCCCCCC(=O)NS(=O)(=O)c1ccccc1` [Compound 8, 13-(3-n-Pentylureido)-N-(phenylsulfonyl)tridec-8(Z)-enamide], for which the “Vascular Relax. % (10 μM)” value in test [1] turned out to be 73%.
Same read-out and setting: the figure for `CCCCCN(C)C(=O)N(C)CCCC/C=C\CCCCCCC(=O)NCC(=O)O` [Compound 6, 2-(13-(1,3-Dimethyl-3-n-pentylureido)tridec-8(Z)-enamido)acetic acid] is 92%; for `CCCCNC(=O)C(=O)NCCCC/C=C\CCCCCCc1nnn[nH]1` [Compound 21] it is 96%.
In test [2] (2 mg/d i.p. osmotic pump, after two weeks of treatment, vehicle 141±3.0), `CCCCCCC(=O)N(CCCC/C=C\CCCCCCC1=NOS(=O)N1)C(C)C` (stereo not drawn) [Compound 26] showed a blood pressure of 150±5.0 mmHg.
As for `CCCCCCC(=O)N(CCCC/C=C\CCCCCCC(=O)NCC(=O)O)C(C)C` [Compound 5, 2-(13-(N-Isopropylheptanamido)tridec-8(Z)-enamido)acetic acid], the “Vascular Relax. % (10 μM)” value in test [1] is on record as 95%. Also, the IC50 in test [3] was greater than 500 nM.
With `CCCCCNC(=O)NCCCC/C=C\CCCCCCP(=O)([O-])[O-].[Na+].[Na+]` [Compound 10], the “Vascular Relax. % (10 μM)” value in test [1] was found to be 71%.
Still for that read-out and setting: the figure for `CCCCCNC(=O)NCCCC/C=C\CCCCCCS(=O)(=O)[O-].[Na+]` [Compound 11] is 63%; for `CCCCCNC(=O)NCCCC/C=C\CCCCCCc1nsc(=O)[nH]1` [Compound 29] it is 54%.
Take `CCCCCCC(=O)N(CCCC/C=C\CCCCCCC(=O)OCCOCCOCCO)C(C)C` [Compound 1, 2-(2-(2-Hydroxyethoxyl)ethoxy)ethyl 13-(N-isopropylheptanamido)tridec-8(Z)-enoate]: in test [1], the “Vascular Relax. % (10 μM)” value turned out to be 86% and the EC50 turned out to be 2900 nM.
For the molecule `CCCCNC(=O)C(=O)NCCCCCOc1cccc2sc(NC(C)=O)nc12` [Compound 32, N^1-(5-(2-Acetamidobenzo[d]thiazol-4-yloxy)pentyl)-N^2-n-butyloxalamide], the “Vascular Relax. % (10 μM)” value in test [1] was 96%. For the same molecule, the IC50 in test [3] was greater than 500 nM.
For `CCCCCNC(=O)NCCCC/C=C\CCCCCCCc1nnn[nH]1` [Compound 22, 1-(13-(1H-Tetrazol-5-yl)tridec-5(Z)-enyl)-3-n-pentylurea], the “Vascular Relax. % (10 μM)” value in test [1] came out at 110%.
On to `CCCCCNC(=O)NCCCC/C=C\CCCCOCC(=O)O` [Compound 4, 2-(10-(3-n-Pentylureido)dec-5(Z)-enyloxy)acetic acid], for which the “Vascular Relax. % (10 μM)” value in test [1] is 49%.
`CCCCNC(=O)C(=O)NCCCC/C=C\CCCCCCC(=O)OCCOCCOCCO` [Compound 3, 2-(2-(2-Hydroxyethoxyl)ethoxy)ethyl13-(2-(n-butylamino)-2 oxoacetamido)tridec-8(Z)-enoate]: in test [1], the “Vascular Relax. % (10 μM)” value was determined as 104% and the concentration giving a half-maximal response (EC50) was found to be 1500 nM.
`CCCCCNC(=O)NCCCC/C=C\CCCCCCC(=O)N[C@@H](CC(=O)O)C(=O)O` (stereo in doubt) [Compound 7, (S)-2-(13-(3-n-Pentylureido)tridec-8(Z)-enamido)succinic acid]: the “Vascular Relax. % (10 μM)” value in test [1] is recorded as 91%.
As for `CCCCCCC(=O)N(CCCCCOc1cccc2sc(NC(=O)C(C)(C)C)nc12)C(C)C` [EET-B, N-Isopropyl-N-(5-(2-pivalamidobenzo[d]thiazol-4-yloxy)pentyl)heptanamide], in test [4] (10 mg/kg/d p.o., vehicle 16±2), the “kidney TBARS formation” value was 8 ± 1 µmol/g. Besides, the “reductions in renal mRNA expressions of inflammatory markers (TNF-α, IL-6, interleukin-1β)” value in test [4] (cisplatin-administered rats) is given as 40-60%. Also, the proteinuria in test [4] (cisplatin-administered rats, vehicle 53±5) was 32 ± 3 mg/day. Also, in test [4] (five days after cisplatin, vs. vehicle), the “reductions in the elevated levels of serum creatinine and BUN” value was 30-50%. The same molecule had an NAG in test [4] (urinary, 10 mg/kg/d p.o., vehicle 3.0±0.6) of 0.6±0.2 U/d. In test [4] (urinary, 10 mg/kg/d p.o., vehicle 296±94), the KIM-1 came to 57 ± 13 ng/day.
Take `CCCCCNC(=O)NCCCC/C=C\CCCCCCc1nnn[nH]1` [Compound 20]: the heart rate in test [2] (2 mg/d i.p., vehicle 331±17.0) was 325±11.0 BPM.
In the case of `CCCCCNC(=O)NCCCCCOc1cccc2sc(NC(C)=O)nc12` [Compound 31, N-(4-(5-(3-n-Pentylureido)pentyloxy)benzo[d]thiazol-2-yl)acetamide], the “Vascular Relax. % (10 μM)” value in test [1] was determined as 73%.
With `CCCCCNC(=O)NCCCC/C=C\CCCCCCC(=O)OCCOCCOCCO` [Compound 2, 2-(2-(2-Hydroxyethoxyl)ethoxy)ethyl 13-(3-n-pentylureido)tridec-8(Z)-enoate], in test [1], the “Vascular Relax. % (10 μM)” value is given as 72% and the EC50 was determined as 5100 nM.
For `CCCCCNC(=O)NCCCC/C=C\CCCCCCC(=O)NS(C)(=O)=O` [Compound 9, N-(Methylsulfonyl)-13-(3-n-pentylureido)tridec-8(Z)-enamide], the “Vascular Relax. % (10 μM)” value in test [1] was determined as 61%.
On the same count and under the same terms, next, `CCCCCNC(=O)NCCCC/C=C\CCCCCCc1noc(=S)[nH]1` [Compound 28]: 93%.
With `CCCCCNC(=O)NCCCC/C=C\CCCCCCc1noc(=O)[nH]1` [Compound 23], the “Vascular Relax. % (10 μM)” value in test [1] is on record as 89%.
As for `CCCCCCC(=O)N(CCCC/C=C\CCCCCCc1nnn[nH]1)C(C)C` [Compound 19], the “Vascular Relax. % (10 μM)” value in test [1] is listed as 74%. Further, the IC50 in test [3] is greater than 500 nM.
